# Assay results reported in patent publication US11613547B2 (priority 2019, dated 2023).
# “And” between values parts separate entries of the source, which are not always exact repeats. Identical values can stand only once.
# How the values were obtained:
# [1] = target: T1, hDOR (Homo sapiens, UniProt P41143); assay: Tango β-arrestin recruitment assay, hDOR; assay type: cell-based; parameters: expressed in transfected cells; host or cells: HTLA cells expressing TEV fused-beta-Arrestin2
# [2] = target: T2, mMOR (Mus musculus, UniProt P42866); assay: Radioligand competition binding ([125I]IBNtxA), CHO membranes, mMOR; conditions: vs 125IBNtxA (0.1 nM), mean ± SEM
# T2 construct: expressed in transfected cells
# [3] = target: T3, mouse mu opioid receptor (mMOR) (Mus musculus, UniProt P42866); assay: cell-based; assay type: cell-based
# T3 construct: expressed in transfected cells; host or cells: HEK-293T, transient (PEI), with BRET sensor cDNAs
# [4] = target: T4, mDOR (Mus musculus, UniProt P32300); assay: Radioligand competition binding ([125I]IBNtxA), CHO membranes, mDOR; conditions: vs 125IBNtxA (0.1 nM), CHO membranes, mean ± SEM
# T4 construct: expressed in transfected cells
# [5] = target: T5, hKOR (Homo sapiens, UniProt P41145); assay: cAMP inhibition assay (GloSensor, HEK 293T), hKOR; assay type: cell-based
# T5 construct: expressed in transfected cells; host or cells: HEK 293T (ATCC CRL-11268), transient
# [6] = target: T6, mKOR (Mus musculus, UniProt P33534); assay: [35S]GTPγS functional assay, mKOR; assay type: biochemical
# T6 construct: expressed in transfected cells
# [7] = target: T3, mouse mu opioid receptor (mMOR); assay: cell-based; assay type: cell-based; remark: listed apart in the source
# [8] = target: T1, hDOR; assay: cAMP inhibition assay, hDOR; assay type: cell-based; parameters: expressed in transfected cells
# [9] = target: T4, mDOR; assay: [35S]GTPγS functional assay, mDOR; assay type: biochemical
# [10] = target: T7, rat kappa opioid receptor (rKOR) (Rattus norvegicus, UniProt P34975); assay: BRET assay, G-protein activation, rKOR; assay type: cell-based
# T7 construct: expressed in transfected cells; host or cells: HEK-293T, transient (PEI), with BRET sensor cDNAs
# [11] = target: T8, hMOR (Homo sapiens, UniProt P35372); assay: cell-based; assay type: cell-based
# T8 construct: expressed in transfected cells; host or cells: HEK 293T (ATCC CRL-11268), transient
# [12] = target: T7, rat kappa opioid receptor (rKOR); assay: BRET assay, arrestin recruitment, rKOR; assay type: cell-based
# [13] = target: T9, mouse delta opioid receptor (mDOR) (Mus musculus, UniProt P32300); assay: BRET assay, arrestin recruitment, mDOR; assay type: cell-based
# T9 construct: expressed in transfected cells; host or cells: HEK-293T, transient (PEI), with BRET sensor cDNAs
# [14] = target: T9, mouse delta opioid receptor (mDOR); assay: BRET assay, G-protein activation, mDOR; assay type: cell-based
# [15] = target: T5, hKOR; assay: Tango β-arrestin recruitment assay, hKOR; assay type: cell-based
# [16] = target: T8, hMOR; assay: Tango β-arrestin recruitment assay, hMOR; assay type: cell-based
# [17] = target: T6, mKOR; assay: Radioligand competition binding ([125I]IBNtxA), CHO membranes, mKOR; conditions: vs 125IBNtxA (0.1 nM), mean ± SEM
# [18] = target: T2, mMOR; assay: [35S]GTPγS functional assay, mMOR; assay type: biochemical
# [19] = test system: C57BL/6J mice; conditions: icv, same assay (Aldrich et al., 2014); cited from earlier work
# [20] = test system: C57BL/6J mice; assay: Conditioned place preference and aversion; conditions: MP1207 100 nmol icv, morphine 10 mg/kg IP, U50,488h 30 mg/kg IP
# [21] = test system: C57 mice; assay: Respiratory rate (CLAMS); conditions: 10 mg/kg IP or 30 nmol icv, 10 mg/kg
# [22] = read-out: Arrestin recruitment Emax % ± SEM
smiles,measurement,setting,value
"O=C(N[C@@H]1CC[C@@]2(O)C3Cc4ccc(O)cc4[C@@]2(CCN3CC2CC2)C1)c1cccc(I)c1 [MP1601, N-((4bR,6R,8aS)-11-(Cyclopropylmethyl)-3,8a-dihydroxy-6,7,8,8a,9,10-hexahydro-5H-9,4b-(epiminoethano)phenanthren-6-yl)-3-iodobenzamide]",Arrestin recruitment pEC50 ± SEM,"[1]; hDOR, Tango",7.1 ± 0.06
same,EC50,"[1]; hDOR, Tango",86.7 nM
same,Emax,[1]; [22],203 ± 5.4%
same,Ki,[2],0.2 ± 0.01 nM
same,arrestin recruitment at mMOR,[3],no arrestin recruitment was observed
same,Ki,[4],5.37 ± 0.9 nM
same,Emax,"[5]; HEK-293T, read-out: Gi Emax hKOR",109 ± 1%
same,Gi pEC50±SEM hKOR,[5]; cAMP inhibition,9.76±0.05
same,"Bias factor toward G protein, hKOR","[5]; cAMP inhibition vs Tango, against U50,488H as control",0.15
same,EC50,"[5]; cAMP inhibition, read-out: Gi EC50 hKOR",0.17 nM
same,Emax,[6],72 ± 4.5%
same,EC50,"[6]; [35S]GTPγS, nM ± SEM",3 ± 0.7 nM
same,Gi pEC50±SEM mMOR,[7],8.6±0.3
same,EC50,[7]; read-out: Gi EC50 mMOR,2.2 nM
same,Emax,[7]; read-out: Gi Emax mMOR,49 ± 3%
same,EC50,[8]; hDOR,2.76 nM
same,cAMP inhibition pEC50 ± SEM,[8]; hDOR,8.6 ± 0.06
same,Emax,[8]; read-out: cAMP inhibition Emax % ± SEM,106 ± 2.3%
same,Emax,[9],67 ± 3.9%
same,EC50,"[9]; [35S]GTPγS, nM ± SEM",10 ± 1.6 nM
same,Gi pEC50±SEM rKOR,[10]; BRET,8.1±0.12
same,"Bias factor toward G-protein, rKOR","[10]; BRET assays, against U50,488H as control",0.9
same,EC50,"[10]; BRET, read-out: Gi EC50 rKOR",8.9 nM
same,Emax,[10]; read-out: Gi Emax rKOR,75 ± 3%
same,"Bias factor toward G protein, hMOR",[11],4
same,Gi pEC50±SEM hMOR,[11],9.99±0.09
same,Emax,"[11]; HEK-293T, read-out: Gi Emax hMOR",69 ± 1%
same,EC50,[11]; read-out: Gi EC50 hMOR,0.1 nM
same,Emax,[12],37 ± 3%
same,Arrestin pEC50±SEM rKOR,[12]; BRET,7.2±0.23
same,EC50,[12]; BRET,56.5 nM
same,EC50,"[13]; mDOR, BRET",9 nM
same,Emax,[13]; [22],16 ± 1.4%
same,G-Protein activation pEC50 ± SEM,"[14]; mDOR, BRET",8.2 ± 0.20
same,Emax,[14]; read-out: G-Protein activation Emax % ± SEM,105 ± 6.7%
same,Emax,[15],107 ± 3%
same,Arrestin pEC50±SEM hKOR,"[15]; Tango, WT-hKOR",8.49±0.07
same,Emax,[16],27 ± 2%
same,Arrestin pEC50±SEM hMOR,[16]; Tango,8.4±0.2
same,Ki,[17],2.13 ± 0.3 nM
same,Emax,[18],45 ± 4.6%
same,EC50,"[18]; [35S]GTPγS, nM ± SEM",0.5 ± 0.2 nM
"CN1CC[C@]23c4c5ccc(O)c4O[C@H]2[C@@H](O)C=C[C@H]3[C@H]1C5 [Morphine, reference compound]","antinociceptive ED50 (95% CI), reported",[19],2.35 (1.13-5.03) nmol and 2.35 nmol
same,conditioned place preference or aversion (CPP/CPA),[20],place preference
same,respiratory rate,[21],significant reduction in respiratory rates
same,respiratory rate,[21]; listed as morphine,decreased respiratory rate
